Values joined by “and” are separate entries in the source; they are usually repeats but may differ in a detail not shown here. Identical values can stand only once.
How the values were obtained:
A53T a-syn or EV rats = assay: Cylinder test, forelimb asymmetry; format: in vivo, rat; parameters: Forelimb asymmetry in cylinder test: scale not given here; details: for Forelimb asymmetry in cylinder test: individual rats
Description: Animals were secured in a stereotactic frame under isoflurane/oxygen anesthesia and ketoprofen (5 mg/kg) analgesia. The surgical site was shaved and sterilized with iodine/betadine prior to making a 2 cm incision along the midline. The scalp was exposed and a unilateral injection targeting the SN was performed at coordinates AP −5.2 mm, ML −2 mm and DV −7.5 mm with respect to the bregma as a point of reference. For each animal, a total volume of 2 μl of virus was injected at a rate of 0.5 μl/min using a microinjection pump and 10 μl Hamilton syringe with a 26-gauge needle. For A53T groups, 1 μl (low dose) or 1.34 μl (high dose) of AAV1/2-A53T a-syn (5.1 × 10^12 genomic particles/ml), 0.14 μl of AAV1/2-PDpep1.3-GFP or Scramble1.3-GFP (5.1 × 10^12 genomic particles/ml) and 0.86 μl or 0.52 μl of sterile PBS was injected; for EV groups, 1 μl (low dose) or 1.34 μl (high dose) of AAV1/2-EV (5.1 × 10^12 genomic particles/ml) replaced AAV1/2-A53T. For V1S/SV2 groups, 0.58 μl of AAV1/2-V1S (1.1 × 10^12 genomic particles/ml), 0.58 μl of AAV1/2-SV2 (1.1 × 10^12 genomic particles/ml), 0.14 μl of AAV1/2-PDpep1.3-RFP or Scramble1.3-RFP (5.1 × 10^12 genomic particles/ml) and 0.7 μl of sterile PBS was injected; for the YFP groups, 1.16 μl of AAV1/2-YFP (1.1 × 10^12 genomic particles/ml), 0.14 μl of AAV1/2-PDpep1.3-RFP or Scramble1.3-RFP (5.1 × 10^12 genomic particles/ml) and 0.7 μl of sterile PBS was injected. At the end of virus injection, the needle remained in place for 5 min before gradual removal.
Spontaneous forepaw use was evaluated using the cylinder test 1 day prior to stereotactic AAV injection, at 21 days post-injection, and at 41 days post-injection. Following overnight food restriction, individual rats with right paws marked black were placed into a glass cylinder in front of two mirrors and videos recorded. An observer blinded to treatment conditions later scored the videos by recording whether animals used their left forepaw, right forepaw, or both forepaws to touch the inner glass surface upon rearing. A total of 5 min of video recording was scored and a minimum of 10 total touches was required for data inclusion.

[1] = tested on: endolysosomal flux in SNCA triplication fibroblasts; assay: Endolysosomal flux assay, confocal microscopy, SNCA triplication fibroblasts; format: cell-based, human
Description: (§1) Flux via the endolysosomal pathway was measured with the Lysosome Intracellular Activity Assay Kit which was purchased from Abcam (ab234622) and used according to the manufacturer’s instructions. The kit provides a proprietary lysosome-specific self-quenched substrate which has low background fluorescence, high signal-to-background ratio, and is pH insensitive. In the assay, the substrate is taken up by cells and acts as endocytic cargo which is degraded within an endolysosomal vesicle. Following degradation, the fluorescence signal recovered from the substrate is proportional to the intracellular lysosomal activity. The activity can be measured by fluorescence microscopy or FACS. The assay was performed with HEK293T cells or SNCA triplication fibroblasts (obtained from NINDS Human Genetics Resource Center DNA and Cell Line Repository; NINDS Repository sample number ND27760). Cells were maintained in DMEM supplemented with 10% FBS and 1% pen/strep/glutamine. Cell medium was replaced with fresh medium containing DMSO, Leupeptin, or Bafilomycin A1 and incubated for 1 h at 37 °C with 5% CO2. Self-quenched substrate was added into each condition and incubated for 1 h (HEK293T cells) or overnight (SNCA triplication fibroblasts) at 37 °C with 5% CO2. […] For HEK293T cells, cells were resuspended in PBS containing DMSO or Leupeptin and analyzed by FACS. […]

[2] = tested on: endolysosomal flux in HEK293 cells; assay: Endolysosomal flux assay, flow cytometry, HEK293 cells; format: cell-based, human; details: A53T a-syn
Description: as §1

Sequence: DEEIERQLKALG [PDpep1.3]
- Forelimb asymmetry in cylinder test (A53T a-syn or EV rats; A53T, 3 WPI): -28.57 and 24.32 and 52.38 and 33.3333 and 9.524 and -2.857
- Forelimb asymmetry in cylinder test (A53T a-syn or EV rats; A53T, 6 WPI): -12.5 (2×) and 25.93 and 21.43 and 6.98
- Forelimb asymmetry (A53T a-syn or EV rats; A53T, 6 weeks): comparable to controls
- Forelimb asymmetry in cylinder test (A53T a-syn or EV rats; A53T, baseline (prior to injection)): -7.41 and 24.14 and 18.18 and 22.22 and -2.4 and -27.78 and 19.4
- Forelimb asymmetry in cylinder test (A53T a-syn or EV rats; EV, 3 WPI): 3.448 and -28.5714 and 80.9524 and -6.849 and 10.3448 and -26.6667 and 19.4444
- Forelimb asymmetry in cylinder test (A53T a-syn or EV rats; EV, 6 WPI): 20 and -14.29 and 37.5 and -3.23 and 75 and -33.33 and 3.03
- Forelimb asymmetry in cylinder test (A53T a-syn or EV rats; EV, baseline (prior to injection)): 21.95 and -4 and 13.16 and -24.75 and 1.82 and 24.14 and 9.8
- Effect on endolysosomal flux in fibroblasts [1]: increased endolysosomal flux
- Effect on endolysosomal flux [2]: returned the fluorescent signal to baseline

Source: PMC10115881, “Disrupting the α-synuclein-ESCRT interaction with a peptide inhibitor mitigates neurodegeneration in preclinical models of Parkinson’s disease” (Nature Communications, 2023)
